Experimental data published in ChEMBL document CHEMBL4118151, “Highly potent activity of isopulegol-derived substituted octahydro-2H-chromen-4-ols against influenza A and B viruses” (Bioorg Med Chem Lett, 2018).

How the values were obtained:
[1] = Selectivity index, ratio of CC50 for MDCK cells to IC50 for amantadine/rimantadine-resistant Influenza A virus (A/Puerto Rico/8/34(H1N1)); format: toxicity; details: dog, read-out: Ratio CC50/IC50
Influenza A virus [2] = test: Antiviral activity against amantadine/rimantadine-resistant Influenza A virus (A/Puerto Rico/8/34(H1N1)) infected in MDCK cells assessed as inhibition of viral replication after 48 hrs by hemagglutination test; format: functional, organism-based; details: A/Puerto Rico/8/1934(H1N1)
Influenza A virus [3] = test: Antiviral activity against osaltamivir-resistant Influenza A virus (A/Vladivostok/02/09(H1N1)) infected in MDCK cells assessed as inhibition of viral replication after 48 hrs by hemagglutination test; format: functional, organism-based
[4] = Selectivity index, ratio of CC50 for MDCK cells to IC50 for amantadine/rimantadine-resistant Influenza A virus (A/California/07/09(H1N1)); format: toxicity; details: dog, read-out: Ratio CC50/IC50
[5] = Selectivity index, ratio of CC50 for MDCK cells to IC50 for osaltamivir-resistant Influenza A virus (A/Vladivostok/02/09(H1N1)); format: toxicity; details: dog, read-out: Ratio CC50/IC50
Influenza B virus = test: Antiviral activity against amantadine/rimantadine-resistant Influenza B virus (B/Florida/4/06(Yamagata-like)) infected in MDCK cells assessed as inhibition of viral replication after 48 hrs by hemagglutination test; format: functional, organism-based, Influenza B virus (B/Florida/4/2006)
[6] = Selectivity index, ratio of CC50 for MDCK cells to IC50 for amantadine/rimantadine-resistant Influenza B virus (B/Florida/4/06/Yamagata-like); format: toxicity; details: dog, read-out: Ratio CC50/IC50
Influenza A virus [7] = test: Antiviral activity against amantadine/rimantadine-resistant Influenza A virus (A/California/07/09(H1N1)) infected in MDCK cells assessed as inhibition of viral replication after 48 hrs by hemagglutination test; format: functional, organism-based; details: A/California/07/2009(H1N1)

Structure (SMILES) | selectivity ratio [1] | IC50 (Influenza A virus [2]) | other results
C[C@@H]1CC[C@@H]2[C@H](C1)OC1(CCCC1)C[C@@]2(C)O | 96 | 8.4 µM | 
C[C@@H]1CC[C@@H]2[C@H](C1)OC(C)(C)CC2(C)O (some centres undefined) | 4 | 17 µM | 
C[C@@H]1CC[C@@H]2[C@@H](C1)O[C@@H](C1CCCCC1)C[C@@]2(C)O | 2 | 12.4 µM | 
C[C@@H]1CC[C@@H]2[C@H](C1)OC1(CCCCCC1)C[C@@]2(C)O | 3 | 82.7 µM | 
CCCC1(CCC)C[C@@](C)(O)[C@@H]2CC[C@@H](C)C[C@@H]2O1 | 3 | 45.5 µM | 
C[C@@H]1CC[C@@H]2[C@H](C1)OC1(CCCCCCC1)C[C@@]2(C)O |  | > 118 µM | 
C[C@@H]1CC[C@@H]2[C@H](C1)OC1(CCCCC1)C[C@@]2(C)O | 34 | 18.3 µM | 
C[C@@H]1CC[C@@H]2[C@@H](C1)OC(C)(C)C[C@]2(C)O | 12 | 70.8 µM | 
CCC[C@H]1C[C@@](C)(O)[C@@H]2CC[C@@H](C)C[C@H]2O1 |  | > 1330 µM | 
CCC1(CC)C[C@@](C)(O)[C@@H]2CC[C@@H](C)C[C@@H]2O1 | 10 | 19.6 µM | 
C[C@@H]1CC[C@@H]2[C@@H](C1)OC(C)(C)C[C@@]2(C)O |  | 7.5 µM | IC50 (Influenza A virus [3]): > 1420 µM; selectivity ratio [4]: 1570; selectivity ratio [5]: 1; IC50 (Influenza B virus): 17 µM; selectivity ratio [6]: 83; IC50 (Influenza A virus [7]): 0.9 µM
CC(C)=O [ACETONE] |  | 7.5 µM | 
NC(=O)c1ncn([C@@H]2O[C@H](CO)[C@@H](O)[C@H]2O)n1 [RIBAVIRIN] |  | 44 µM | 
CC(N)C12CC3CC(CC(C3)C1)C2 (centres undefined) [RIMANTADINE] | 4 | 72 µM | 
